Measured values published in the supplement of paper PMC10307832.

Columns and labels:
Assay in all cases: relative viability (nuclei count vs DMSO), 5 days (fraction); higher = more cells survive
Vorinostat + Dasatinib = compound: O=C(CCCCCCC(=O)Nc1ccccc1)NO [Vorinostat] + Cc1nc(Nc2ncc(C(=O)Nc3c(C)cccc3Cl)s2)cc(N2CCN(CCO)CC2)n1 [Dasatinib] (partner 0.075 µM)
Summary of the method: (§1)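 Relative viability is defined as nuclei in treated wells over nuclei in vehicle wells. Duplicate plates were run and medians reported. Lung cancer cell lines in 1536-well plates were dosed by pin tool one day after seeding, with one drug or with a fixed anchor-drug dose plus five library-drug doses (not always all listed) in √10 steps, and nuclei were counted after 5 days.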

Vorinostat + Navitoclax = compound: O=C(CCCCCCC(=O)Nc1ccccc1)NO [Vorinostat] + CC1(C)CCC(c2ccc(Cl)cc2)=C(CN2CCN(c3ccc(C(=O)NS(=O)(=O)c4ccc(N[C@H](CCN5CCOCC5)CSc5ccccc5)c(S(=O)(=O)C(F)(F)F)c4)cc3)CC2)C1 [Navitoclax] (partner 0.5 µM)
Summary of the method: as §1

Vorinostat + Phenformin = compound: O=C(CCCCCCC(=O)Nc1ccccc1)NO [Vorinostat] + N=C(N)NC(=N)NCCc1ccccc1 [Phenformin] (partner 250 µM)
Summary of the method: as §1

Vorinostat + Olaparib = compound: O=C(CCCCCCC(=O)Nc1ccccc1)NO [Vorinostat] + O=C(c1cc(Cc2n[nH]c(=O)c3ccccc23)ccc1F)N1CCN(C(=O)C2CC2)CC1 [Olaparib] (partner 8 µM)
Summary of the method: as §1

Vorinostat + Crizotinib = compound: O=C(CCCCCCC(=O)Nc1ccccc1)NO [Vorinostat] + C[C@@H](Oc1cc(-c2cnn(C3CCNCC3)c2)cnc1N)c1c(Cl)ccc(F)c1Cl [Crizotinib] (partner 1 µM)
Summary of the method: as §1

| Cell Line | relative viability (Vorinostat + Dasatinib; first compound 0.253 µM) | relative viability (Vorinostat + Dasatinib; first compound 0.8 µM) | relative viability (Vorinostat + Dasatinib; first compound 2.53 µM) | relative viability (Vorinostat + Dasatinib; first compound 8 µM) | relative viability (Vorinostat + Navitoclax; first compound 0.253 µM) | relative viability (Vorinostat + Navitoclax; first compound 0.8 µM) | relative viability (Vorinostat + Navitoclax; first compound 2.53 µM) | relative viability (Vorinostat + Navitoclax; first compound 8 µM) | relative viability (Vorinostat + Phenformin; first compound 0.253 µM) | relative viability (Vorinostat + Phenformin; first compound 0.8 µM) | relative viability (Vorinostat + Phenformin; first compound 2.53 µM) | relative viability (Vorinostat + Phenformin; first compound 8 µM) | relative viability (Vorinostat + Olaparib; first compound 0.253 µM) | relative viability (Vorinostat + Olaparib; first compound 0.8 µM) | relative viability (Vorinostat + Olaparib; first compound 2.53 µM) | relative viability (Vorinostat + Olaparib; first compound 8 µM) | relative viability (Vorinostat + Crizotinib; first compound 0.253 µM) | relative viability (Vorinostat + Crizotinib; first compound 0.8 µM) | relative viability (Vorinostat + Crizotinib; first compound 2.53 µM) | relative viability (Vorinostat + Crizotinib; first compound 8 µM) |
| --- | --- | --- | --- | --- | --- | --- | --- | --- | --- | --- | --- | --- | --- | --- | --- | --- | --- | --- | --- | --- |
| LU99A | 0.607 | 0.591 | 0.242 | 0.172 | 0.653 | 0.553 | 0.172 | 0.0974 | 0.952 | 0.609 | 0.447 | 0.185 | 0.232 | 0.177 | 0.104 | 0.101 | 0.523 | 0.44 | 0.236 | 0.146 |
| 201T | 0.578 | 0.503 | 0.381 | 0.221 | 1.24 | 1.25 | 1.2 | 0.472 | 0.478 | 0.446 | 0.406 | 0.236 | 0.852 | 0.814 | 0.523 | 0.255 | 1.12 | 1.03 | 1.02 | 0.317 |
| HCC-827 | 0.299 | 0.334 | 0.382 | 0.314 | 1.04 | 1.03 | 0.818 | 0.195 | 0.455 | 0.521 | 0.453 | 0.239 | 0.776 | 0.632 | 0.344 | 0.15 | 0.97 | 0.964 | 0.581 | 0.174 |
| SK-MES-1 | 0.566 | 0.657 | 0.197 | 0.148 | 1.51 | 1.18 | 0.494 | 0.162 | 0.719 | 0.723 | 0.517 | 0.207 | 0.84 | 0.774 | 0.327 | 0.181 | 1.13 | 1.06 | 0.495 | 0.157 |
| H3255 | 0.396 | 0.342 | 0.309 | 0.301 | 0.595 | 0.598 | 0.2 | 0.0872 | 0.33 | 0.302 | 0.323 | 0.262 | 0.588 | 0.52 | 0.326 | 0.222 | 1.02 | 0.817 | 0.411 | 0.225 |
| NCI-H1975 | 0.407 | 0.32 | 0.162 | 0.0818 | 1.23 | 0.839 | 0.308 | 0.146 | 0.431 | 0.381 | 0.197 | 0.127 | 0.9 | 0.593 | 0.249 | 0.125 | 1.04 | 0.679 | 0.174 | 0.134 |
| NCI-H441 | 0.846 | 0.557 | 0.285 | 0.138 | 0.464 | 0.536 | 0.164 | 0.184 | 1.1 | 0.863 | 0.317 | 0.169 | 0.56 | 0.542 | 0.17 | 0.0865 | 0.722 | 0.776 | 0.141 | 0.11 |
| NCI-H1944 | 0.204 | 0.184 | 0.178 | 0.174 | 1.07 | 0.945 | 0.731 | 0.226 | 0.203 | 0.19 | 0.146 | 0.123 | 0.367 | 0.33 | 0.166 | 0.114 | 0.965 | 0.631 | 0.292 | 0.125 |
| EMC-BAC-2 | 0.311 | 0.204 | 0.169 | 0.108 | 1.21 | 1.13 | 0.692 | 0.131 | 0.523 | 0.473 | 0.248 | 0.163 | 0.448 | 0.382 | 0.216 | 0.139 | 0.817 | 0.558 | 0.166 | 0.107 |
| NCI-H2085 | 0.24 | 0.252 | 0.223 | 0.225 | 1.18 | 1.02 | 0.643 | 0.269 | 0.781 | 0.532 | 0.46 | 0.223 | 0.803 | 0.79 | 0.442 | 0.219 | 0.8 | 0.831 | 0.436 | 0.181 |
| NCI-H1651 | 0.415 | 0.195 | 0.0466 | 0.0608 | 1.12 | 0.732 | 0.0917 | 0.0643 | 0.408 | 0.326 | 0.0932 | 0.0635 | 0.187 | 0.17 | 0.098 | 0.0473 | 0.846 | 0.786 | 0.232 | 0.097 |
| NCI-H2087 | 0.94 | 0.553 | 0.124 | 0.0691 | 1.05 | 0.959 | 0.238 | 0.189 | 0.449 | 0.331 | 0.0993 | 0.0935 | 0.717 | 0.52 | 0.13 | 0.069 | 0.838 | 0.727 | 0.236 | 0.177 |
| LXF-289 | 0.316 | 0.347 | 0.226 | 0.0398 | 1.04 | 0.963 | 0.279 | 0.0872 | 0.595 | 0.558 | 0.306 | 0.0606 | 1.11 | 1.02 | 0.148 | 0.0576 | 0.904 | 0.76 | 0.273 | 0.0737 |
| NCI-H3122 | 1.11 | 0.69 | 0.0421 | 0.0399 | 1.09 | 1.08 | 0.959 | 0.184 | 0.395 | 0.365 | 0.0662 | 0.118 | 0.543 | 0.574 | 0.319 | 0.0668 | 0.311 | 0.317 | 0.227 | 0.198 |
